Results: US7411039B2, “GLP-2 compounds, formulations, and uses thereof” (Novo Nordisk A/S, priority 2002, dated 2008)
Like-named read-outs stand apart in the source and are kept apart here.

How the values were obtained:
[1] = system: growth of the small intestine in mice; type: in vivo; conditions: for Small intestinal weight, Mean ± SD / Small intestinal weight/body weight, Mean ± SD: group mean
Description: Bioassay in Mice. Dose-Response Study of GLP-2 Derivatives. • Table 3. Model parameter estimates following nonlinear regression analysis of dose and small intestinal weights relative to body weight. • Table 4. Model parameter estimates following nonlinear regression analysis of dose and small intestinal weights. • Table 5. Body weight, small intestinal weight and relative small intestinal weight of mice treated with L17K(3-(tetradecanoylamino)propionyl)/K30R-[…]. • Table 6. […]. Body weight, small intestinal weight and relative small intestinal weight of mice treated with A2G-[…]. • Table 8. Body weight, small intestinal weight and relative small intestinal weight of control mice.
The following GLP-2 derivatives and analog were tested: • 1. L17K(3-(tetradecanoylamino)propionyl)/K30R-[…]. • 2. L17K(3-(hexadecanoylamino)propionyl)/K30R-[…]. • 3. A2G-[…]. All derivatives were dissolved and diluted in buffer containing:
Disodiumhydrogenphosphate 1.42 mg/ml, Mannitol 36.9 mg/ml, Phenol 5 mg/ml, pH 8.0.
189 female C57b1 mice were used in the study. All animals were divided into four groups:
• Group 1: Controls • Group 2: L17K(3-(tetradecanoylamino)propionyl)/K30R-[…] • Group 3: L17K(3-(hexadecanoylamino)propionyl)/K30R-[…] • Group 4: A2G-[…] Dosing
All animals received a daily subcutaneous injection of 100 pi for 10 days with the following doses:
At Day 10 the animals were weighted before they were sacrificed. The intestine was carefully removed from each animal and the small intestine dissected, rinsed with saline and weighted.
Body weight, small intestinal weight and small intestinal weight relative to body weight were reported for all animals and used generating the dose-response relationship. The treatment-induced increase in both absolute and relative small intestinal weight is calculated for each treatment group, since this is considered the pharmacologically relevant efficacy parameter.
A generalised Michaelis-Menten model, with shape factor γ corresponding to the Hillslope in the semilogarithmic dose-response curve and E0 representing the background efficacy level at D=0, was used as dose-response model. Emax is the maximal effect observed and ED50 is the dose that gives an effect equal to 50% of Emax. The model was used because of the higher flexibility compared to a four parameter logistic dose-response model (1). The model was fitted to data using nonlinear regression in order to determine estimates for Emax, ED50, γ and E0.
[formula] The goodness of fit was evaluated by visual inspection of plots showing observed data points together with fitted curves and residuals plots. Parameter estimates are presented together with CV % and 95% C.I.
In order to account for the variability in the background efficacy level, control data were included in the nonlinear regression analysis as D=0 for all three treatment groups.
The nonlinear regression analyses were performed using WinNonlin Professional, version 3.1, Pharsight. The nonlinear regression was performed using the Gauss-Newton (Levenberg and Hartley) algorithm.

[2] = system: Dextran sulfate (DS)-induced colitis; conditions: 350 ng or 750 ng s.c. twice daily for 9-10 days, cited from earlier work
[3] = background efficacy level at D=0, nonlinear regression of dose-response, mice, daily s.c. for 10 days
[4] = dose level A, 33 μg daily s.c. for 10 days
[5] = dose level B, 16.5 μg daily s.c. for 10 days
[6] = dose level C, 8.25 μg daily s.c. for 10 days
[7] = dose level D, 4.125 μg daily s.c. for 10 days
[8] = dose level E, 2.063 μg daily s.c. for 10 days
[9] = dose level F, 1.031 μg daily s.c. for 10 days
[10] = dose level G, 0.512 μg daily s.c. for 10 days
[11] = nonlinear regression of dose-response
[12] = nonlinear regression of dose-response, mice, daily s.c. for 10 days
[13] = treatment-induced increase, secondary parameter of curve fitting

Which results are given for `CC[C@H](C)[C@H](NC(=O)[C@H](Cc1ccccc1)NC(=O)[C@H](CC(=O)O)NC(=O)[C@H](CCCNC(=N)N)NC(=O)[C@H](C)NC(=O)[C@H](C)NC(=O)[C@H](CC(C)C)NC(=O)[C@H](CC(N)=O)NC(=O)[C@H](CC(=O)O)NC(=O)[C@H](CC(C)C)NC(=O)[C@@H](NC(=O)[C@@H](NC(=O)[C@H](CC(N)=O)NC(=O)[C@H](CCSC)NC(=O)[C@H](CCC(=O)O)NC(=O)[C@H](CC(=O)O)NC(=O)[C@H](CO)NC(=O)[C@H](Cc1ccccc1)NC(=O)[C@H](CO)NC(=O)CNC(=O)[C@H](CC(=O)O)NC(=O)CNC(=O)[C@@H](N)Cc1c[nH]cn1)[C@@H](C)O)[C@@H](C)CC)C(=O)N[C@@H](CC(N)=O)C(=O)N[C@@H](Cc1c[nH]c2ccccc12)C(=O)N[C@@H](CC(C)C)C(=O)N[C@H](C(=O)N[C@@H](CCC(N)=O)C(=O)N[C@H](C(=O)N[C@@H](CCCCN)C(=O)N[C@H](C(=O)N[C@H](C(=O)N[C@@H](CC(=O)O)C(=O)O)[C@@H](C)O)[C@@H](C)CC)[C@@H](C)O)[C@@H](C)CC` [A2G-GLP-2(1-33)]?
E0, parameter estimate (CV %), small intestinal weight [1, 3]: 1.1095 (2.0) g; E0, parameter estimate (CV %), small intestinal weight relative to body weight [1, 3]: 0.0425 (2.4); Small intestinal weight, Mean ± SD [1, 4]: 1.2300 ± 0.1602 g; Small intestinal weight/body weight, Mean ± SD [1, 4]: 0.0501 ± 0.0057; Small intestinal weight, Mean ± SD [1, 5]: 1.1775 ± 0.1337 g; Small intestinal weight/body weight, Mean ± SD [1, 5]: 0.0489 ± 0.0042; Small intestinal weight, Mean ± SD [1, 6]: 1.2463 ± 0.1235 g; Small intestinal weight/body weight, Mean ± SD [1, 6]: 0.0484 ± 0.0052; Small intestinal weight, Mean ± SD [1, 7]: 1.1713 ± 0.1687 g; Small intestinal weight/body weight, Mean ± SD [1, 7]: 0.0448 ± 0.0054; Small intestinal weight, Mean ± SD [1, 8]: 1.0750 ± 0.1124 g; Small intestinal weight/body weight, Mean ± SD [1, 8]: 0.0443 ± 0.0027; Small intestinal weight, Mean ± SD [1, 9]: 1.1688 ± 0.0923 g; Small intestinal weight/body weight, Mean ± SD [1, 9]: 0.0461 ± 0.0041; Small intestinal weight, Mean ± SD [1, 10]: 1.1075 ± 0.1014 g; Small intestinal weight/body weight, Mean ± SD [1, 10]: 0.0436 ± 0.0036; γ (shape factor, Hillslope), parameter estimate (CV %), small intestinal weight [1, 11]: 8.4169 (1869); γ (shape factor, Hillslope), parameter estimate (CV %), small intestinal weight relative to body weight [1, 11]: 0.6625 (109); Emax, parameter estimate (CV %), small intestinal weight [1, 12]: 1.2180 (2.3) g; Emax, parameter estimate (CV %), small intestinal weight relative to body weight [1, 12]: 0.0548 (33.3); Emax − E0, parameter estimate (CV %), small intestinal weight [1, 13]: 0.1085 (34.8) g; Emax − E0, parameter estimate (CV %), small intestinal weight relative to body weight [1, 13]: 0.0123 (151); histology of colon ([2]; DS mice): exhibited a greater proportion of intact mucosal epithelium, increased colon length, crypt depth and mucosal area; body weight loss ([2]; mice receiving 5% DS in the drinking water): lost significantly less body weight
